{"source": "patent US20240166971A1", "about": "“CONTACT LENS TREATING SOLUTION” (Bausch + Lomb Ireland Limited, priority 2022, published 2024)", "origin": "cited, not measured here", "system": "Gram-positive bacteria", "conditions": "known property"}
{"molecule": "CCCCC(CC)COCC(O)CO", "note": "(stereo not shown) [EHOPD, 3-[(2-ethylhexyl)oxy]-1,2-propanediol]", "values": [{"measurement": "antimicrobial activity", "result": "exhibit antimicrobial activity"}]}
